Measured values as given in patent US20120225135A1 (priority 2010, published 2012).
“And” between values parts separate entries of the source, which are not always exact repeats. Equal entries are not always repeated. Where two headings read alike, the source gives them in different places.

What was measured:
[1] = type: physicochemical; conditions: for Found ppm: test level 0.13 ppm ClO2, taken 0.130 ppm
[2] = system: Total Plate Count (microbiological surface contamination)
[3] = Processing of potatoes, micro-biological control of process water
[4] = system: Saccharomyces diastaticus (70 percent sporulated); test: Microbiological effectiveness at cold temperatures; type: cell-based
[5] = system: Pichia (Hansenula) anomala (20 percent sporulated); test: Microbiological effectiveness at cold temperatures; type: cell-based
Lactobacillus frigidus = test: Microbiological effectiveness at cold temperatures; type: cell-based
Pediococcus damnosus = test: Microbiological effectiveness at cold temperatures; type: cell-based
Enterobacter Cloacae = test: Microbiological effectiveness at cold temperatures; type: cell-based
TPC = test: Sanitation of fishing holds, TPC; conditions: cleaned surface sprayed with 10 ppm ClO2 solution
Description: Gross filth removed and washed in detergent
Cleaned surface sprayed with 10 ppm ClO2 solution

[6] = system: Klebsiella terrigena, ATCC 33257; type: cell-based; conditions: pH 5
[7] = system: Salmonella choleraesuis, ATCC 10708; type: cell-based; conditions: pH 5
[8] = system: Escherichia coli, ATCC 11229; type: cell-based; conditions: pH 5
[9] = system: Legionella pneumophila, ATCC 33153; type: cell-based; conditions: pH 5
[10] = system: Rotavirus SA-11, ATCC VR-899; type: cell-based; conditions: pH 9
Giardia muris cysts = conditions: in vivo
[11] = Residual ClO2 after contact with effluents or tap water (amperometric titration); type: physicochemical; conditions: for Residual ClO2: trickling filters effluents
Total Count = test: Disinfection of effluents, total count; type: cell-based; conditions: for Total Count: effluents, ClO2 dose 9.86 mg/L, 30 minutes; for Total Count per 100 mL: trickling filters effluents
Confirmed Coliform = test: Disinfection of effluents, confirmed coliforms; type: cell-based; conditions: for Confirmed Coliforms: effluents, ClO2 dose 9.86 mg/L, 30 minutes; for Confirmed Coliform per 100 mL: trickling filters effluents
Fecal Coli = test: Disinfection of effluents, fecal coli; type: cell-based; conditions: for Fecal Coli: ClO2 dose 9.86 mg/L, 30 minutes; for Fecal Coli EC Media per 100 mL: trickling filters effluents
Streptococcus = test: Disinfection of effluents, streptococcus; type: cell-based; conditions: trickling filters effluents
[12] = ClO2 dose 2.7 mg/L, contact time 5 min
[13] = ClO2 dose 2.7 mg/L, contact time 20 min
[14] = ClO2 dose 2.7 mg/L, contact time 35 min
[15] = ClO2 dose 5.0 mg/L, contact time 15 min
[16] = ClO2 dose 5.0 mg/L, contact time 30 min
[17] = ClO2 dose 10.8 mg/L, contact time 5 min
[18] = ClO2 dose 10.8 mg/L, contact time 20 min
[19] = ClO2 dose 10.8 mg/L, contact time 35 min

**Q.** What does the source list for [O][Cl+][O-] [Chlorine Dioxide, chlorine dioxide]?
**A.** Mean ([1]; Day 1, n 6): 0.126 ppm; Found ppm ([1]; Day 1): 0.128 ppm and 0.126 ppm and 0.115 ppm and 0.127 ppm and 0.133 ppm; Mean ([1]; Day 5, n 6): 0.122 ppm; Found ppm ([1]; Day 5): 0.125 ppm and 0.122 ppm and 0.117 ppm and 0.123 ppm and 0.118 ppm; Mean ([1]; Day 15, n 5): 0.129 ppm; Found ppm ([1]; Day 15): 0.133 ppm and 0.129 ppm and 0.127 ppm and 0.125 ppm and 0.131 ppm and 0.157* ppm; Mean ([1]; Day 30, n 5): 0.128 ppm; Found ppm ([1]; Day 30): 0.126 ppm and 0.130 ppm and 0.128 ppm and 0.125 ppm and 0.161* ppm; Mean ([1]; Day 48, n 5): 0.129 ppm; Found ppm ([1]; Day 48): 0.131 ppm and 0.127 ppm and 0.128 ppm and 0.164* ppm; Mean ([1]; Day 96, n 4): 0.133 ppm; Found ppm ([1]; Day 96): 0.137 ppm and 0.132 ppm and 0.128 ppm and 0.133 ppm and 0.161* ppm; E. coli on cut lettuce (E. coli): always zero; TPC at day zero [2]: less than 7×10^4; micro-biological control compared with chlorine [3]: better micro-biological control agent than chlorine at 5-10 ppm; Deactivation (%) [4]: 99.999%; Deactivation (%) [5]: 99.999%; Deactivation (%) (Lactobacillus frigidus): 99.999%; Deactivation (%) (Pediococcus damnosus): 99.999%; Deactivation (%) (Enterobacter Cloacae): 99.999%; TPC at day zero (TPC): less than 7×10^4; Total microbio counts (Total microbio counts): 1-5 organisms/ml; reduction in titer [6]: > 6 log 10; reduction in titer [7]: > 6 log 10; reduction in titer [8]: > 6 log 10; reduction in titer [9]: > 6 log 10; reduction in titer [10]: > 4 log 10; reduction of infectivity for mice (Giardia muris cysts): > 3 log 10; ClO2 residual ([11]; effluent, ClO2 dose 5.2 mg/L, contact time 3½ hrs): 0.4 mg/L as ClO2; ClO2 residual ([11]; effluent, ClO2 dose 5.2 mg/L, contact time 10 min): 1.9 mg/L as ClO2; ClO2 residual ([11]; effluent, ClO2 dose 5.2 mg/L, contact time 30 min): 1.4 mg/L as ClO2; ClO2 residual ([11]; effluent, ClO2 dose 5.2 mg/L, contact time 1 hr): 1.0 mg/L as ClO2; ClO2 residual ([11]; effluent, ClO2 dose 5.2 mg/L, contact time 2 hrs): 0.8 mg/L as ClO2; ClO2 residual ([11]; effluent, ClO2 dose 5.2 mg/L, contact time 24 hrs): 0 mg/L as ClO2; ClO2 residual ([11]; effluents, ClO2 dose 7.84 mg/L, contact time 10 min): 3.0 mg/L as ClO2; ClO2 residual ([11]; effluents, ClO2 dose 7.84 mg/L, contact time 30 min): 2.6 mg/L as ClO2; ClO2 residual ([11]; effluents, ClO2 dose 7.84 mg/L, contact time 60 min): 2.1 mg/L as ClO2; ClO2 residual ([11]; effluents, ClO2 dose 7.84 mg/L, contact time 1.5 hr): 1.9 mg/L as ClO2; ClO2 residual ([11]; effluents, ClO2 dose 7.84 mg/L, contact time 2.5 hr): 1.5 mg/L as ClO2; ClO2 residual ([11]; effluents, ClO2 dose 7.84 mg/L, contact time 3.5 hr): 1.0 mg/L as ClO2; ClO2 residual ([11]; effluents, dose 19.2 mg/L, 20 minutes, pH initial 4, final 3.4): 4.66 mg/L as ClO2; ClO2 residual ([11]; effluents, dose 19.2 mg/L, 20 minutes, pH initial 5, final 4.6): 4.37 mg/L as ClO2; ClO2 residual ([11]; effluents, dose 19.2 mg/L, 20 minutes, pH initial 6, final 6.45): 4.95 mg/L as ClO2; ClO2 residual ([11]; effluents, dose 19.2 mg/L, 20 minutes, pH initial 7.5, final 7.3): 3.84 mg/L as ClO2; ClO2 residual ([11]; effluents, dose 19.2 mg/L, 20 minutes, pH initial 9, final 8.8): 1.27 mg/L as ClO2; ClO2 residual ([11]; effluents, dose 19.2 mg/L, 20 minutes, pH initial 10, final 9.9): 0.11 mg/L as ClO2; ClO2 residual ([11]; effluents, dose 37.5 mg/L, 20 minutes, pH initial 4.0, final 3.5): 25.84 mg/L as ClO2; ClO2 residual ([11]; effluents, dose 37.5 mg/L, 20 minutes, pH initial 5.0, final 4.95): 26.88 mg/L as ClO2; ClO2 residual ([11]; effluents, dose 37.5 mg/L, 20 minutes, pH initial 6.0, final 6.05): 24.20 mg/L as ClO2; ClO2 residual ([11]; effluents, dose 37.5 mg/L, 20 minutes, pH initial 7.5, final 7.3): 25.27 mg/L as ClO2; ClO2 residual ([11]; effluents, dose 37.5 mg/L, 20 minutes, pH initial 9, final 8.8): 15.13 mg/L as ClO2; ClO2 residual ([11]; effluents, dose 37.5 mg/L, 20 minutes, pH initial 10, final 9.8): 5.23 mg/L as ClO2; ClO2 residual ([11]; tap water with ammonium ion, nitrites, nitrates, neutral pH, dose 19.2 mg/L, 10 min): 0 mg/L as ClO2; ClO2 residual ([11]; tap water with ammonium ion, nitrites, nitrates, neutral pH, dose 19.2 mg/L, 30 min): 0 mg/L as ClO2; ClO2 residual ([11]; tap water with ammonium ion, nitrites, nitrates, neutral pH, dose 19.2 mg/L, 1 hr): 0.07 mg/L as ClO2; ClO2 residual ([11]; tap water with ammonium ion, nitrites, nitrates, neutral pH, dose 19.2 mg/L, 3 hrs): 0.03 mg/L as ClO2; ClO2 residual ([11]; tap water with ammonium ion, nitrites, nitrates, neutral pH, dose 19.2 mg/L, 24 hrs): 0.08 mg/L as ClO2; Residual ClO2 ([11]; dose 2.7 mg/L, contact time 5 min): 0 mg/L as ClO2; Residual ClO2 ([11]; dose 2.7 mg/L, contact time 20 min): 0 mg/L as ClO2; Residual ClO2 ([11]; dose 2.7 mg/L, contact time 35 min): 0 mg/L as ClO2; Residual ClO2 ([11]; dose 7.8 mg/L, contact time 5 min): 1.28 mg/L as ClO2; Residual ClO2 ([11]; dose 7.8 mg/L, contact time 20 min): 1.03 mg/L as ClO2; Residual ClO2 ([11]; dose 7.8 mg/L, contact time 35 min): 0.84 mg/L as ClO2; Residual ClO2 ([11]; dose 10.8 mg/L, contact time 5 min): 3.10 mg/L as ClO2; Residual ClO2 ([11]; dose 10.8 mg/L, contact time 20 min): 2.17 mg/L as ClO2; Residual ClO2 ([11]; dose 10.8 mg/L, contact time 35 min): 2.07 mg/L as ClO2; Total Count (Total Count; pH initial 4.6, final 4.4): 5 MPN per 100 ml; Total Count (Total Count; pH initial 5.5, final 5.6): 15 MPN per 100 ml; Total Count (Total Count; pH initial 6.5, final 6.7): 30 MPN per 100 ml; Total Count (Total Count; pH initial 7.5, final 7.6): 1 × 10^2 MPN per 100 ml; Total Count (Total Count; pH initial 8.2, final 8.1): 2 × 10^2 MPN per 100 ml; Total Count (Total Count; pH initial 9.1, final 9.2): 2.5 × 10^3 MPN per 100 ml; Total Count (Total Count; pH initial 10.0, final 10.0): 6.8 × 10^2 MPN per 100 ml; Total Count per 100 mL (Total Count; [12]): 6.75 × 10^7 per 100 mL; Total Count per 100 mL (Total Count; [13]): 5.3 × 10^7 per 100 mL; Total Count per 100 mL (Total Count; [14]): 3.1 × 10^7 per 100 mL; Total Count per 100 mL (Total Count; [15]): 2.0 × 10^6 per 100 mL; Total Count per 100 mL (Total Count; [16]): 1.6 × 10^5 per 100 mL; Total Count per 100 mL (Total Count; ClO2 dose 5.0 mg/L, contact time 45 min): 9.0 × 10^4 per 100 mL; Total Count per 100 mL (Total Count; [17]): 1.2 × 10^5 per 100 mL; Total Count per 100 mL (Total Count; [18]): 2.9 × 10^4 per 100 mL; Total Count per 100 mL (Total Count; [19]): 2.5 × 10^4 per 100 mL; Confirmed Coliforms (Confirmed Coliform; pH initial 4.6, final 4.4): 2 MPN per 100 ml; Confirmed Coliforms (Confirmed Coliform; pH initial 5.5, final 5.6): 2 MPN per 100 ml; Confirmed Coliforms (Confirmed Coliform; pH initial 6.5, final 6.7): 4.5 MPN per 100 ml; Confirmed Coliforms (Confirmed Coliform; pH initial 7.5, final 7.6): 17 MPN per 100 ml; Confirmed Coliforms (Confirmed Coliform; pH initial 8.2, final 8.1): 33 MPN per 100 ml; Confirmed Coliforms (Confirmed Coliform; pH initial 9.1, final 9.2): 7.9 × 10^2 MPN per 100 ml; Confirmed Coliforms (Confirmed Coliform; pH initial 10.0, final 10.0): 1.3 × 10^4 MPN per 100 ml; Confirmed Coliform per 100 mL (Confirmed Coliform; [12]): 1.3 × 10^7 per 100 mL; Confirmed Coliform per 100 mL (Confirmed Coliform; [13]): 2.4 × 10^7 per 100 mL; Confirmed Coliform per 100 mL (Confirmed Coliform; [14]): 2.4 × 10^6 per 100 mL; Confirmed Coliform per 100 mL (Confirmed Coliform; [15]): 2.4 × 10^6 per 100 mL; Confirmed Coliform per 100 mL (Confirmed Coliform; [16]): 1.1 × 10^2 per 100 mL; Confirmed Coliform per 100 mL (Confirmed Coliform; [17]): 1.3 × 10^3 per 100 mL; Confirmed Coliform per 100 mL (Confirmed Coliform; [18]): 14 per 100 mL; Confirmed Coliform per 100 mL (Confirmed Coliform; [19]): 7.8 per 100 mL; Fecal Coli (Fecal Coli; effluents, pH initial 4.6, final 4.4): 2 MPN per 100 ml; Fecal Coli (Fecal Coli; effluents, pH initial 5.5, final 5.6): 2 MPN per 100 ml; Fecal Coli (Fecal Coli; effluents, pH initial 6.5, final 6.7): 0 MPN per 100 ml; Fecal Coli (Fecal Coli; effluents, pH initial 7.5, final 7.6): 1.8 MPN per 100 ml; Fecal Coli (Fecal Coli; effluents, pH initial 8.2, final 8.1): 23 MPN per 100 ml; Fecal Coli (Fecal Coli; effluents, pH initial 9.1, final 9.2): 2.7 × 10^2 MPN per 100 ml; Fecal Coli (Fecal Coli; effluents, pH initial 10.0, final 10.0): 1.3 × 10^4 MPN per 100 ml; kill of fecal coli (Fecal Coli; effluents, dose 2.7 mg/L ClO2, 30 min. contact time): 98.9%; fecal coli organisms survived (Fecal Coli; effluents, dose 10.8 mg/L ClO2, 30 min. contact time): two; Fecal Coli EC Media per 100 mL (Fecal Coli; [12]): 2.4 × 10^7 per 100 mL; Fecal Coli EC Media per 100 mL (Fecal Coli; [13]): 1.3 × 10^7 per 100 mL; Fecal Coli EC Media per 100 mL (Fecal Coli; [14]): 3.5 × 10^5 per 100 mL; Fecal Coli EC Media per 100 mL (Fecal Coli; [15]): 2.4 × 10^6 per 100 mL; Fecal Coli EC Media per 100 mL (Fecal Coli; [17]): 9.2 × 10^2 per 100 mL; Fecal Coli EC Media per 100 mL (Fecal Coli; [18]): 14 per 100 mL; Fecal Coli EC Media per 100 mL (Fecal Coli; [19]): 2 per 100 mL; Streptococcus per 100 mL (Streptococcus; [12]): 8.4 × 10^7 per 100 mL; Streptococcus per 100 mL (Streptococcus; [13]): 2.4 × 10^7 per 100 mL; Streptococcus per 100 mL (Streptococcus; [17]): 2.7 × 10^5 per 100 mL; Streptococcus per 100 mL (Streptococcus; [18]): 8.0 × 10^3 per 100 mL
